Test results from patent publication US6057447A, “Quinoline sulfide derivatives” (Zenyaku Kogyo Kabushiki Kaisha, priority 1996, dated 2000).
≈ marks a conversion by molar mass, not a printed value.

System: Helicobacter pylori standard strain ATCC 43526 (NCTC 11916)
Test: Antibacterial Test 1: MIC against Helicobacter pylori, agar plate dilution method (anaerobic MIC method)
Format: cell-based
Settings: 72 h, Hp ATCC 43526, agar plate dilution, 37° C., 3 days

Compound	MIC [µg/mL]
O=C(CSc1ccnc2ccccc12)c1ccc(-c2ccccc2)cc1 [Compound 4, 4-[2-(p-Biphenyl)-2-oxoethylthio]quinoline]	0.1 (≈ 0.281 µM)
CC(C)(C)OC(=O)N1CCN(c2ccc(C(=O)CSc3ccnc4ccccc34)cc2Br)CC1 [Compound 14, 4-[2-[3-Bromo-4-(4-tert-butoxycarbonyl-1-piperazinyl)-phenyl]-2-oxoethylthio]quinoline]	0.0016 (≈ 0.00295 µM)
CC(C)(C)OC(=O)Nc1ccc(CCSc2ccnc3ccccc23)cc1 [Compound 24, 4-[2-(4-tert-Butoxycarbonylaminophenyl)ethylthio]-quinoline]	0.2 (≈ 0.526 µM)
CC(C)(C)OC(=O)Nc1ccc(C(=O)CSc2ccnc3ccccc23)cc1 [Compound 30, 4-[2-(4-tert-Butoxycarbonylaminophenyl)-2-oxoethylthio]-quinoline]	0.1 (≈ 0.253 µM)
CSc1ccc2c(SCc3ccc(NCC(=O)c4ccc5ccccc5c4)cc3)ccnc2c1 [Compound 38, 4-[4-(2-β-Naphtyl-2-oxoethylamino)benzylthio]-7-methylthioquinoline]	0.2 (≈ 0.416 µM)
CSc1ccc2c(SCc3ccc(N4CCN(C)CC4)cc3)ccnc2c1 [Compound 46, 4-[4-(4-Methyl-1-piperazinyl)benzylthio]-7-methylthioquinoline]	0.1 (≈ 0.253 µM)
CSc1ccc2c(SCc3ccc(N(CCOC(C)=O)CCOC(C)=O)cc3)ccnc2c1 [Compound 47, 4-[4-[Bis(2-acetoxyethyl)amino]benzylthio]-7-methylthioquinoline]	0.2 (≈ 0.413 µM)
CSc1ccc2c(SCc3ccc(N(CCO)CCOC(C)=O)cc3)ccnc2c1 [Compound 48, 4-[4-[N-(2-Acetoxyethyl)-2-hydroxyethylamino]benzylthio]-7-methylthioquinoline]	0.1 (≈ 0.226 µM)
CC(C)(C)OC(=O)N1CCN(CCc2ccc(C(=O)CSc3ccnc4ccccc34)cc2)CC1 [Compound 50, 4-[2-[4-[2-(4-tert-Butoxycarbonyl-1-piperazinyl)ethyl]-phenyl]-2-oxoethylthio]quinoline]	0.05 (≈ 0.102 µM)
CCN(CC)C(=S)N1CCN(c2ccc(C(=O)CSc3ccnc4ccccc34)cc2)CC1 [Compound 54, 4-[2-[4-(4-Diethylaminothiocarbonyl-1-piperazinyl)-phenyl]-2-oxoethylthio]quinoline]	0.0016 (≈ 0.00334 µM)
CCCCCCOc1ccc(C(=O)CSc2ccnc3ccccc23)c(OC)c1 [Compound 55, 4-[2-[2-Methoxy-4-hexyloxyphenyl]-2-oxoethylthio]-quinoline]	0.0062 (≈ 0.0151 µM)
COc1ccc(COc2ccc(C(=O)CSc3ccnc4ccccc34)cc2)cc1 [Compound 56, 4-[2-[4-(4-Methoxybenzyloxy)phenyl]-2-oxoethylthio]-quinoline]	0.0125 (≈ 0.0301 µM)
COc1ccc(COc2ccc(C(=O)CSc3ccnc4ccccc34)cc2OC)cc1 [Compound 58, 4-[2-[3-Methoxy-4-(4-methoxybenzyloxy)phenyl]-2-oxoethylthio]quinoline]	0.0031 (≈ 0.00696 µM)
CSc1ccc2c(SCc3ccc(N4CCN(C=O)CC4)cc3)ccnc2c1 [Compound 63, 4-[4-(4-Formyl-1-piperazinyl)benzylthio]-7-methylthioquinoline]	0.1 (≈ 0.244 µM)
CC(C)(C)CN1CCN(c2ccc(C(=O)CSc3ccnc4ccccc34)cc2Br)CC1 [Compound 66, 4-[2-[3-Bromo-4-(4-neopentyl-1-piperazinyl)phenyl]-2-oxoethylthio]quinoline]	0.0004 (≈ 0.00078 µM)
O=C(CSc1ccnc2ccccc12)c1ccc(N2CCN(c3ncccn3)CC2)cc1 [Compound 68, 4-[2-[4-[4-(2-Pyrimidyl)-1-piperazinyl]phenyl]-2-oxoethylthio]quinoline]	0.0016 (≈ 0.00362 µM)
CC(C)CN(C)CC(=O)Nc1ccc(CCSc2ccnc3ccccc23)cc1 [Compound 70, 4-[2-[4-[2-(N-Isobutyl-N-methylamino)acetylamino]-phenyl]ethylthio]quinoline]	0.05 (≈ 0.123 µM)
CC(C)CN1CC(=O)N(c2ccc(C(=O)CSc3ccnc4ccccc34)cc2)C1 [Compound 71, 4-[2-[4-(3-Isobutyl-5-oxo-1-imidazolidinyl)phenyl]-2-oxoethylthio]quinoline]	0.05 (≈ 0.119 µM)
CC(C)(C)OC(=O)N1CCN(c2ccc(C(=O)CSc3ccnc4ccc(F)cc34)cc2)CC1 [Compound 73, 4-[2-[4-(4-tert-Butoxycarbonyl-1-piperazinyl)phenyl]-2-oxoethylthio]-6-fluoroquinoline]	0.0062 (≈ 0.0129 µM)
CC(C)(C)C(=O)N1CC=C(c2ccc(C(=O)CSc3ccnc4ccccc34)cc2)CC1 [Compound 74, 4-[2-[4-(1-Pivaloyl-1,2,5,6-tetrahydropyrid-4-yl)phenyl]-2-oxoethylthio]quinoline]	0.0008 (≈ 0.0018 µM)
CC(C)(C)OC(=O)N1CCC(c2ccc(C(=O)CSc3ccnc4ccccc34)cc2)CC1 [Compound 75, 4-[2-[4-(1-tert-Butoxycarbonyl-4-piperidinyl)phenyl]-2-oxoethylthio]quinoline]	0.0125 (≈ 0.027 µM)

More lines, in order of falling MIC, values ahead:

MIC [µg/mL]	Compound
0.39 (≈ 1.11 µM)	COc1ccc2c(SCc3ccc(NCC(C)C)cc3)ccnc2c1 [Compound 35, 4-(4-Isobutylaminobenzylthio)-7-methoxyquinoline]
0.39 (≈ 1.02 µM)	COc1cc(C(=O)CSc2ccnc3ccccc23)ccc1OCC1CO1 (centres unmarked) [Compound 57, 4-[2-[3-Methoxy-4-(2,3-epoxypropoxy)phenyl]-2-oxoethylthio]quinoline]
0.2 (≈ 0.564 µM)	CSc1ccc2c(SC(C)c3ccc(N(C)C)cc3)ccnc2c1 (centres unmarked) [Compound 33, 4-[1-(4-Dimethylaminophenyl)ethylthio]-7-methylthio-quinoline]
0.2 (≈ 0.456 µM)	CSc1ccc2c(SCc3ccc(NCCC(C)CC(C)(C)C)cc3)ccnc2c1 (centres unmarked) [Compound 37, 4-[4-(3,5,5-Trimethylhexylamino)benzylthio]-7-methylthioquinoline]
0.2 (≈ 0.564 µM)	CSc1ccc2c(SCc3ccc(N(C)C)c(C)c3)ccnc2c1 [Compound 40, 4-(3-Methyl-4-dimethylaminobenzylthio)-7-methylthioquinoline]
0.2 (≈ 0.521 µM)	CSc1ccc2c(SCc3ccc(N(C)C)c(N(C)C)c3)ccnc2c1 [Compound 41, 4-[3,4-Bis(dimethylamino)benzylthio]-7-methylthioquinoline]
0.2 (≈ 0.546 µM)	CSc1ccc2c(SCc3ccc(N4CCCC4)cc3)ccnc2c1 [Compound 44, 4-[4-(1-Pyrrolidinyl)benzylthio]-7-methylthioquinoline]
0.2 (≈ 0.526 µM)	CSc1ccc2c(SCc3ccc(N4CCCCC4)cc3)ccnc2c1 [Compound 45, 4-(4-Piperidinobenzylthio)-7-methylthioquinoline]
0.2	Cl.O=C(CSc1ccnc2ccccc12)c1ccc(N2CCNCC2)cc1 [Compound 51, 4-[2-[4-(1-Piperazinyl)phenyl]-2-oxoethylthio]quinoline hydrochloride]
0.2 (≈ 0.603 µM)	OC(CSc1ccnc2ccccc12)c1ccc2ccccc2c1 (centres unmarked) [Compound 61, 4-[2-(2-Naphtyl)-2-hydroxyethylthio]quinoline]
0.1 (≈ 0.249 µM)	COc1ccc(Oc2ccc(C(=O)CSc3ccnc4ccccc34)cc2)cc1 [Compound 15, 4-[2-[4-(4-Methoxyphenoxy)phenyl]-2-oxoethylthio]-quinoline]
0.1 (≈ 0.264 µM)	CC(C)(C)C(=O)Nc1ccc(C(=O)CSc2ccnc3ccccc23)cc1 [Compound 19, 4-[2-(4-Pivaloylaminophenyl)-2-oxoethylthio]quinoline]
0.1 (≈ 0.269 µM)	c1ccc(COc2ccc(CCSc3ccnc4ccccc34)cc2)cc1 [Compound 25, 4-[2-(4-Benzyloxyphenyl)ethylthio]quinoline]
0.1 (≈ 0.294 µM)	CCNc1ccc(CSc2ccnc3cc(SC)ccc23)cc1 [Compound 36, 4-(4-Ethylaminobenzylthio)-7-methylthioquinoline]
0.1 (≈ 0.294 µM)	CNc1ccc(CSc2ccnc3cc(SC)ccc23)cc1C [Compound 39, 4-(3-Methyl-4-methylaminobenzylthio)-7-methylthioquinoline]
0.1 (≈ 0.261 µM)	CSc1ccc2c(SCc3ccc(N4CCOCC4)cc3)ccnc2c1 [Compound 43, 4-(4-Morpholinobenzylthio)-7-methylthioquinoline]
0.05 (≈ 0.147 µM)	COc1ccc(C(=O)CSc2ccnc3ccccc23)c(OC)c1 [Compound 6, 4-[2-(2,4-Dimethoxyphenyl)-2-oxoethylthio]quinoline]
0.05 (≈ 0.135 µM)	COc1cc(C(=O)CSc2ccnc3ccccc23)cc(OC)c1OC [Compound 17, 4-(2-(3,4,5-Trimethoxyphenyl)-2-oxoethylthio]quinoline]
0.05 (≈ 0.123 µM)	CC(C)CN(C)CCN(C)c1ccc(CCSc2ccnc3ccccc23)cc1 [Compound 72, 4-[2-[4-[N-[2-(N-Isobutyl-N-methylamino)ethyl]-N-methylamino]phenyl]ethylthio]quinoline]
0.025 (≈ 0.0539 µM)	O=C(CSc1ccnc2ccccc12)c1ccc(NCc2ccccc2)c(Br)c1 [Compound 20, 4-[2-(4-Benzylamino-3-bromophenyl)-2-oxoethylthio]-quinoline]
0.025 (≈ 0.0477 µM)	COc1ccc(C=CC(=O)N2CCN(c3ccc(C(=O)CSc4ccnc5ccccc45)cc3)CC2)cc1 [Compound 53, 4-[2-[4-[4-(4-Methoxycinnamoyl)-1-piperazinyl]phenyl]-2-oxoethylthio]quinoline]
0.025 (≈ 0.0637 µM)	CCCCCCCNc1ccc(C(=O)CSc2ccnc3ccccc23)cc1 [Compound 69, 4-[2-[4-(Heptylamino)phenyl]-2-oxoethylthio]quinoline]
0.0062 (≈ 0.012 µM)	O=C(CSc1ccnc2ccccc12)c1ccc(N2CCN(c3ccc(Br)cc3)CC2)cc1 [Compound 67, 4-[2-[4-[4-(4-Bromophenyl)-1-piperazinyl]phenyl]-2-oxoethylthio]quinoline]
0.0008 (≈ 0.00179 µM)	CC(C)(C)C(=O)N1CCC(c2ccc(C(=O)CSc3ccnc4ccccc34)cc2)CC1 [Compound 28, 4-[2-[4-(1-Pivaloyl-4-piperidinyl)phenyl]-2-oxoethylthio]-quinoline]
0.0008 (≈ 0.00191 µM)	CC(C)CN1CCN(c2ccc(C(=O)CSc3ccnc4ccccc34)cc2)CC1 [Compound 29, 4-[2-[4-(4-Isobutyl-1-piperazinyl)phenyl]-2-oxoethylthio]quinoline]
0.0008 (≈ 0.00179 µM)	CC(C)(C)C(=O)N1CCN(c2ccc(C(=O)CSc3ccnc4ccccc34)cc2)CC1 [Compound 52, 4-[2-[4-(4-Pivaloyl-1-piperazinyl)phenyl]-2-oxoethylthio]quinoline]
